Measured values taken from PubChem BioAssay AID258 (DTP/NCI, 2004).
Several values for one entry are separate records, joined by “and”; a condition that tells them apart may be missing. Equal entries are not always repeated. Toxic doses and inconclusive results are not listed.

Test system: CD2F1 mice, L1210 leukemia sc, survival T/C
Assay: NCI In Vivo Anticancer Drug Screen. Data for tumor model L1210 Leukemia (subcutaneous) in CD2F1 (CDF1) mice
Conditions: higher = longer survival
Method: The antitumor activity of compounds was measured in mice bearing transplantable tumors. Survival or tumor size were measured and the results are expressed as the measurement made in the treated group (T) divided by the measurement made in the vehicle treated control group (C). The tumor model used in this assay is L1210 Leukemia (subcutaneous) in CD2F1 (CDF1) mice

## CN(Cc1cnc2nc(N)nc(N)c2n1)c1ccc(C(=O)N[C@@H](CCC(=O)O)C(=O)O)cc1
endpoint: mean survival time, dose: 1.08 mg/kg/injection, schedule: Q01DX009 (sc), vehicle: other
  T/C: 170 % of control
endpoint: mean survival time, dose: 1.8 mg/kg/injection, schedule: Q01DX009 (sc), vehicle: other
  T/C: 158 % of control
endpoint: mean survival time, dose: 3.0 mg/kg/injection, schedule: Q01DX009 (sc), vehicle: other
  T/C: 168 % of control
endpoint: mean survival time, dose: 5.0 mg/kg/injection, schedule: Q01DX017 (sc), vehicle: other
  T/C: 124 % of control
endpoint: median survival time, dose: 0.08 mg/kg/injection, schedule: Q## X Z (sc), vehicle: other
  T/C: 155 % of control
endpoint: median survival time, dose: 0.1 mg/kg/injection, schedule: Q#A X Z (oral), vehicle: other
  T/C: 104 % of control
endpoint: median survival time, dose: 0.1 mg/kg/injection, schedule: Q#A X Z (sc), vehicle: other
  T/C: 122 % of control
endpoint: median survival time, dose: 0.14 mg/kg/injection, schedule: Q## X Z (sc), vehicle: other
  T/C: 155 % of control
endpoint: median survival time, dose: 0.16 mg/kg/injection, schedule: Q#A X Z (oral), vehicle: other
  T/C: 109 % of control
endpoint: median survival time, dose: 0.23 mg/kg/injection, schedule: Q#A X Z (sc), vehicle: other
  T/C: 122 % of control
endpoint: median survival time, dose: 0.25 mg/kg/injection, schedule: Q01DX Z (sc), vehicle: other
  T/C: 112 % of control and 116 % of control
endpoint: median survival time, dose: 0.27 mg/kg/injection, schedule: Q01DX Z (oral), vehicle: other
  T/C: 109 % of control
endpoint: median survival time, dose: 0.27 mg/kg/injection, schedule: Q#A X Z (oral), vehicle: other
  T/C: 122 % of control
endpoint: median survival time, dose: 0.3 mg/kg/injection, schedule: Q01DX Z (sc), vehicle: sodium bicarbonate
  T/C: 111 % of control
endpoint: median survival time, dose: 0.38 mg/kg/injection, schedule: Q01DX009 (ip), vehicle: sodium bicarbonate
  T/C: 108 % of control
endpoint: median survival time, dose: 0.39 mg/kg/injection, schedule: Q01DX Z (ip), vehicle: other
  T/C: 115 % of control
endpoint: median survival time, dose: 0.39 mg/kg/injection, schedule: Q01DX Z (iv), vehicle: other
  T/C: 105 % of control
endpoint: median survival time, dose: 0.39 mg/kg/injection, schedule: Q01DX Z (oral), vehicle: other
  T/C: 100 % of control
endpoint: median survival time, dose: 0.39 mg/kg/injection, schedule: Q02DX Z (sc), vehicle: other
  T/C: 111 % of control
endpoint: median survival time, dose: 0.45 mg/kg/injection, schedule: Q01DX Z (oral), vehicle: other
  T/C: 100 % of control
endpoint: median survival time, dose: 0.45 mg/kg/injection, schedule: Q#A X Z (sc), vehicle: other
  T/C: 159 % of control
endpoint: median survival time, dose: 0.47 mg/kg/injection, schedule: Q01DX Z (oral), vehicle: other
  T/C: 111 % of control
endpoint: median survival time, dose: 0.48 mg/kg/injection, schedule: Q01DX Z (oral), vehicle: other
  T/C: 100 % of control
endpoint: median survival time, dose: 0.5 mg/kg/injection, schedule: Q01DX009 (ip), vehicle: sodium bicarbonate
  T/C: 112 % of control
endpoint: median survival time, dose: 0.62 mg/kg/injection, schedule: Q01DX Z (sc), vehicle: other
  T/C: 160 % of control
endpoint: median survival time, dose: 0.65 mg/kg/injection, schedule: Q01DX009 (sc), vehicle: other
  T/C: 152 % of control
endpoint: median survival time, dose: 0.65 mg/kg/injection, schedule: Q01DX009 (sc), vehicle: sodium bicarbonate
  T/C: 150 % of control
endpoint: median survival time, dose: 0.65 mg/kg/injection, schedule: Q01DX Z (iv), vehicle: other
  T/C: 111 % of control
endpoint: median survival time, dose: 0.65 mg/kg/injection, schedule: Q01DX Z (oral), vehicle: other
  T/C: 105 % of control
endpoint: median survival time, dose: 0.65 mg/kg/injection, schedule: Q02DX Z (sc), vehicle: other
  T/C: 105 % of control
endpoint: median survival time, dose: 0.65 mg/kg/injection, schedule: Q## X Z (sc), vehicle: other
  T/C: 122 % of control
endpoint: median survival time, dose: 0.65 mg/kg/injection, schedule: Q#A X Z (sc), vehicle: other
  T/C: 161 % of control
endpoint: median survival time, dose: 0.75 mg/kg/injection, schedule: Q01DX009 (ip), vehicle: sodium bicarbonate
  T/C: 113 % of control
endpoint: median survival time, dose: 0.75 mg/kg/injection, schedule: Q01DX Z (ip), vehicle: water
  T/C: 175 % of control
endpoint: median survival time, dose: 0.76 mg/kg/injection, schedule: Q01DX Z (oral), vehicle: other
  T/C: 122 % of control
endpoint: median survival time, dose: 0.76 mg/kg/injection, schedule: Q#A X Z (oral), vehicle: other
  T/C: 150 % of control
endpoint: median survival time, dose: 0.79 mg/kg/injection, schedule: Q01DX Z (oral), vehicle: other
  T/C: 105 % of control
endpoint: median survival time, dose: 1.08 mg/kg/injection, schedule: Q01DX009 (sc), vehicle: sodium bicarbonate
  T/C: 171 % of control
endpoint: median survival time, dose: 1.08 mg/kg/injection, schedule: Q01DX Z (oral), vehicle: other
  T/C: 110 % of control
endpoint: median survival time, dose: 1.25 mg/kg/injection, schedule: Q01DX Z (sc), vehicle: other
  T/C: 180 % of control
endpoint: median survival time, dose: 1.26 mg/kg/injection, schedule: Q01DX Z (oral), vehicle: other
  T/C: 168 % of control and 181 % of control
endpoint: median survival time, dose: 1.26 mg/kg/injection, schedule: Q01DX Z (sc), vehicle: other
  T/C: 181 % of control
endpoint: median survival time, dose: 1.26 mg/kg/injection, schedule: Q#A X Z (oral), vehicle: other
  T/C: 118 % of control
endpoint: median survival time, dose: 1.3 mg/kg/injection, schedule: Q01DX Z (oral), vehicle: other
  T/C: 166 % of control
endpoint: median survival time, dose: 1.31 mg/kg/injection, schedule: Q01DX Z (oral), vehicle: other
  T/C: 111 % of control
endpoint: median survival time, dose: 1.4 mg/kg/injection, schedule: Q01DX Z (sc), vehicle: sodium bicarbonate
  T/C: 183 % of control
endpoint: median survival time, dose: 1.8 mg/kg/injection, schedule: Q01DX009 (sc), vehicle: other
  T/C: 161 % of control
endpoint: median survival time, dose: 1.8 mg/kg/injection, schedule: Q01DX009 (sc), vehicle: sodium bicarbonate
  T/C: 174 % of control and 177 % of control
endpoint: median survival time, dose: 1.8 mg/kg/injection, schedule: Q01DX Z (ip), vehicle: other
  T/C: 175 % of control
endpoint: median survival time, dose: 1.8 mg/kg/injection, schedule: Q## X Z (sc), vehicle: other
  T/C: 111 % of control
endpoint: median survival time, dose: 2.0 mg/kg/injection, schedule: Q01DX Z (sc), vehicle: other
  T/C: 175 % of control and 177 % of control and 183 % of control
endpoint: median survival time, dose: 2.08 mg/kg/injection, schedule: Q01DX Z (sc), vehicle: other
  T/C: 170 % of control
endpoint: median survival time, dose: 2.1 mg/kg/injection, schedule: Q01DX Z (oral), vehicle: other
  T/C: 163 % of control
endpoint: median survival time, dose: 2.1 mg/kg/injection, schedule: Q01DX Z (sc), vehicle: other
  T/C: 168 % of control
endpoint: median survival time, dose: 2.33 mg/kg/injection, schedule: Q01DX Z (sc), vehicle: sodium bicarbonate
  T/C: 155 % of control
endpoint: median survival time, dose: 2.5 mg/kg/injection, schedule: Q01DX Z (sc), vehicle: other
  T/C: 155 % of control
endpoint: median survival time, dose: 3.0 mg/kg/injection, schedule: Q01DX009 (ip), vehicle: saline with Tween-80
  T/C: 173 % of control
endpoint: median survival time, dose: 3.0 mg/kg/injection, schedule: Q01DX009 (sc), vehicle: other
  T/C: 179 % of control
endpoint: median survival time, dose: 3.0 mg/kg/injection, schedule: Q01DX009 (sc), vehicle: sodium bicarbonate
  T/C: 183 % of control
endpoint: median survival time, dose: 3.0 mg/kg/injection, schedule: Q01DX Z (ip), vehicle: other
  T/C: 150 % of control
endpoint: median survival time, dose: 3.0 mg/kg/injection, schedule: Q01DX Z (ip), vehicle: sodium bicarbonate
  T/C: 105 % of control
endpoint: median survival time, dose: 3.0 mg/kg/injection, schedule: Q01DX Z (ip), vehicle: water
  T/C: 120 % of control
endpoint: median survival time, dose: 3.0 mg/kg/injection, schedule: Q01DX Z (iv), vehicle: other
  T/C: 155 % of control
endpoint: median survival time, dose: 3.0 mg/kg/injection, schedule: Q01DX Z (oral), vehicle: other
  T/C: 170 % of control
endpoint: median survival time, dose: 3.0 mg/kg/injection, schedule: Q## X Z (sc), vehicle: other
  T/C: 111 % of control
endpoint: median survival time, dose: 3.25 mg/kg/injection, schedule: Q01DX Z (sc), vehicle: other
  T/C: 158 % of control
endpoint: median survival time, dose: 3.47 mg/kg/injection, schedule: Q01DX Z (sc), vehicle: other
  T/C: 150 % of control
endpoint: median survival time, dose: 3.5 mg/kg/injection, schedule: Q01DX Z (sc), vehicle: other
  T/C: 163 % of control
endpoint: median survival time, dose: 3.5 mg/kg/injection, schedule: Q03DX Z (oral), vehicle: other
  T/C: 100 % of control
endpoint: median survival time, dose: 3.5 mg/kg/injection, schedule: Q#A X Z (oral), vehicle: other
  T/C: 109 % of control
endpoint: median survival time, dose: 4.0 mg/kg/injection, schedule: Q01DX009 (ip), vehicle: saline with Tween-80
  T/C: 168 % of control
endpoint: median survival time, dose: 4.0 mg/kg/injection, schedule: Q01DX009 (ip), vehicle: saline
  T/C: 184 % of control
endpoint: median survival time, dose: 4.0 mg/kg/injection, schedule: Q01DX Z (sc), vehicle: other
  T/C: 150 % of control and 155 % of control
endpoint: median survival time, dose: 5.0 mg/kg/injection, schedule: Q01DX009 (sc), vehicle: sodium bicarbonate
  T/C: 116 % of control and 120 % of control
endpoint: median survival time, dose: 5.0 mg/kg/injection, schedule: Q01DX017 (sc), vehicle: other
  T/C: 122 % of control
endpoint: median survival time, dose: 5.0 mg/kg/injection, schedule: Q## X Z (sc), vehicle: other
  T/C: 111 % of control
endpoint: median survival time, dose: 5.83 mg/kg/injection, schedule: Q01DX Z (oral), vehicle: other
  T/C: 118 % of control
endpoint: median survival time, dose: 5.83 mg/kg/injection, schedule: Q03DX Z (oral), vehicle: other
  T/C: 100 % of control
endpoint: median survival time, dose: 8.33 mg/kg/injection, schedule: Q01DX Z (iv), vehicle: other
  T/C: 120 % of control
endpoint: median survival time, dose: 8.33 mg/kg/injection, schedule: Q01DX Z (oral), vehicle: other
  T/C: 150 % of control
endpoint: median survival time, dose: 8.4 mg/kg/injection, schedule: Q## X Z (sc), vehicle: other
  T/C: 122 % of control
endpoint: median survival time, dose: 9.72 mg/kg/injection, schedule: Q01DX Z (oral), vehicle: other
  T/C: 118 % of control
endpoint: median survival time, dose: 14.0 mg/kg/injection, schedule: Q## X Z (sc), vehicle: other
  T/C: 122 % of control
endpoint: median survival time, dose: 16.2 mg/kg/injection, schedule: Q03DX Z (oral), vehicle: other
  T/C: 113 % of control
endpoint: median survival time, dose: 23.0 mg/kg/injection, schedule: Q01DX001 (sc), vehicle: other
  T/C: 122 % of control
endpoint: median survival time, dose: 23.0 mg/kg/injection, schedule: Q## X Z (sc), vehicle: other
  T/C: 122 % of control
endpoint: median survival time, dose: 65.0 mg/kg/injection, schedule: Q07DX Z (sc), vehicle: other
  T/C: 150 % of control
endpoint: median survival time, dose: 108.0 mg/kg/injection, schedule: Q01DX001 (sc), vehicle: other
  T/C: 122 % of control
endpoint: median survival time, dose: 108.0 mg/kg/injection, schedule: Q07DX Z (sc), vehicle: other
  T/C: 122 % of control
endpoint: median survival time, dose: 180.0 mg/kg/injection, schedule: Q01DX001 (sc), vehicle: other
  T/C: 116 % of control
endpoint: median survival time, dose: 400.0 mg/kg/injection, schedule: Q01DX009 (ip), vehicle: sodium bicarbonate
  T/C: 158 % of control
